Test results: a compilation of properties of binary mixtures (doi:10.1021/acs.jced.1c00023)

Experiment: xn = mol fraction of the nth substance listed
Conditions: 101.3 kPa

Oc1cccc(O)c1O + CCCCCCCCCCCC[N+](C)(C)C.[Br-]
x2 = 0.333
Conditions	electrical conductivity [S/m]	speed of sound [m/s]	viscosity [mPa·s]
293.15 K	0.0047	1614.6	7500
298.15 K	0.0082	1592.1	5650
303.15 K	0.0139	1572.5	3900
308.15 K	0.0234	1554.9	2300
313.15 K	0.0364	1538.8	1500
318.15 K	0.0539	1523.4	1000
323.15 K	0.0773	1508.7	750
328.15 K	0.105	1494.3	550

Oc1cccc(O)c1O + CCC[N+](CCC)(CCC)CCC.[Br-]
x2 = 0.5
Conditions	electrical conductivity [S/m]	speed of sound [m/s]	viscosity [mPa·s]
298.15 K	0.0031	1855.2	25000
318.15 K	0.0259	1704.1	4800
323.15 K	0.04	1674.1	3500
328.15 K	0.0703	1652.9	2550
